Bridges are numbered along the chain shown (N, C = ends). Where no end group is shown, it is not given here.
Assays:
[1] = tested on: adipose tissues from male Zucker fatty (fa/fa) rats; assay: In vitro glycerol release during lipolysis in isolated adipose tissue; format: cell-based, rat
Experimental: (§1) Adipose tissues were removed from animals and sliced into segments of approximately 200 mg each. Then the tissues were pre-incubated in 25 ml vials containing 2 ml of Krebs-Ringerbicarbonate (KRB) buffer, 4% defatted BSA and 5.5 mM glucose under an atmosphere of carbogen (95%O2/ 5%CO2) at 37° C. for 1 hour. Tissues were then transferred to another vials with fresh medium and the incubation was initiated by adding hGH 177-191 peptide or analogues into the vials. The mixtures were then incubated at 37° C. for 90 minutes. After incubation, the tissues wee removed and aliquots (200 μl) of samples withdrawn from the medium were assayed for the contents of glycerol or free fatty acid (FFA) either by the enzyme assay (glycerol kinase) or calorimetric (copper-dye) spectrometry. The NADH or color produced was then monitored by the absorption at 340 nm and 610 nm, respectively.

C57BL/6J (ob/ob) mice = assay: Chronic treatment of C57BL/6J (ob/ob) mice with peptide analogues; format: in vivo, mouse
Experimental: Animals were given a daily intraperitoneal injection of either saline (as control) or peptide analogue (500 μg/kg body weight). Each point represents the mean±SEM of 6 animals.
The treatment for the two groups of animals was as described in FIG. 11A. Each point represents the mean±SEM of 6 animals.
The animals of the same age and same sex were randomly divided into two groups, housed 6 per cage and maintained on a normal 12-hr light/dark cycle at a constant room temperature of 25° C. in the animal house of the Department of Biochemistry and—Molecular Biology, Monash University, Clayton, Australia. Animals were fed ad libitum on pre-determined quantity of animal pellets (Clark King, Melboume, Australia) and allowed free access to water at all times. The animals were given a daily intraperitoneal (i.p) injection of 0.1 ml of either the synthetic peptide (200-500 μg/kg body weight) or equivalent volume of physiological saline (0.9% sodium chloride) for appropriate number of days. The i.p. injection was administered with a 30G×½″ (0.31×13 mm) needle on a 1-ml disposable tuberculin syringes, and the site of injection was the lower left quadrant of the abdomen of the animals. To study the effects of controlled-delivery of hGH 177-191 and analogues, slow-release peptide-pellets in a diameter of 3 mm were implanted intradermally in the abdominal region of Zucker rats under anaesthesia. The body weight and food intake were monitored for the periods of time as indicated.
Cumulative weight gain and food consumption were determined at 3-day intervals by the measurements of body weight and uneaten food remaining in the cages. The animals were placed in a covered chamber to minimise movement during the weighing procedure. The food consumption data were obtained by subtracting the amount of uneaten food remaining in the cages from the original provision.
The animals were anaesthetised with sodium pentobarbitone (80 mg/kg body weight) 12 hr after the last dose of hGH 177-191. Blood samples were collected from the tail vein of anaesthetised animals 45 mins after the administration of anaesthetic. After being centrifuged at 2000×g for 5 minutes, plasma was removed from the samples and used for metabolite assays. Triglyceride and total cholesterol in plasma were measured by enzyme-spectrophotometric methods. The reagents are based on either a modified glycerol phosphate oxidase (GPO)-Trinder's type colour reaction^24 or a cholesterol oxidase-4-aminoantipyrine method^25. All assays were performed with the CentrifiChem System 400 (Union Carbide) containing an automated pipetter, a centrifugal analyser and a recording spectrophotometer. Seronorm Lipid (Nycomed Pharma Co., Oslo, Norway) was used as the calibrator.

[2] = tested on: adipose tissues from male Zucker fatty (fa/fa) rats; assay: In vitro inhibition of lipogenesis in isolated adipose tissue; format: cell-based, rat; details: structure-activity summary
Experimental: (§2) The rate of the incorporation of exogenous [C^14]-glucose into total lipid in adipose tissue was measured as the index of anti-lipogenic activity of hGH 177-191.
(§3) Adipose tissues were sliced into segments of approximately 200 mg each and then placed in Krebs-Ringer bicarbonate (KRB) buffer (pH 7.4) containing 2% defatted BSA, and glucose (0.1 mg/ml) and gassed with 95% O2-5% CO2 at 37° C. After 1 hr preincubation, the tissues were transferred to another 2 ml of fresh media containing [C^14]-glucose (final specific activity 0.05 μCi/μmol), and 0.3 μM of hGH 177-191 in the presence or absence of insulin (0.1 mU/ml) for a further 90 min incubation (conditions as above). Then the tissues were removed, washed thoroughly with KRB buffer and lipid was extracted with 5 ml of chlorofom/methanol (2:1, v/v) The extraction solution was washed with 2 ml of MeOH-H2O solution containing 0.1% MgCl2. A 2.5 ml aliquot of the washed extraction solution was taken and transferred to scintillation vials. The [C^14] radioactivity was measured with a liquid scintillation counter. The rates of total lipid synthesis were expressed as μmol [C^14]-glucose incorporated into lipid/g tissue/hr.

[3] = tested on: Human Abdominal adipose Tissue; assay: Antilipogenic activity in human abdominal adipose tissue; format: cell-based; details: 0.1 μM peptide; BSA + insulin
Experimental: as §2
as §3, with “and 0.3 μM of hGH 177-191 in the presence or absence” left out
(§4) Tables 6 and 7 show the in vitro antilipogenic and lipolytic activity of hGH 177-191 and two representative analogues (Ref Nos. 9604 and 9605) on human adipose tissue.

Porcine adipose Tissue = assay: Lipolytic activity in porcine adipose tissue; format: cell-based, pig; details: 0.5 μM peptide
Experimental: as §1
Since corresponding sequences of non-human mammals are effectively peptide variants of the human sequence, it is also therefore expected that those corresponding sequences will be effective in other mammals including humans.

[4] = tested on: Human Subcutaneous adipose Tissue; assay: Lipolytic activity in human subcutaneous adipose tissue; format: cell-based; details: 0.5 μM peptide
Experimental: as §1, §4

[5] = Post-treatment (Day 20-38), saline
[6] = Treatment (Day 0-18), i.p. 500 μg/kg daily

9401 (LRIVQCRSVEGSCGF; listed as Homo sapiens) [compound 9401]
Glycerol release ([1]; peptide concentration 0.1 μM): 1.82 ± 0.02 μmol/g tissue/hr
Glycerol release ([1]; peptide concentration 1.0 μM): 1.86 ± 0.12 μmol/g tissue/hr

9403 (LRKVQCRSVEGSCGF; disulfide 6-13; listed as Homo sapiens) [compound 9403]
Glycerol release ([1]; peptide concentration 0.1 μM): 1.80 ± 0.03 μmol/g tissue/hr
Glycerol release ([1]; peptide concentration 1.0 μM): 1.88 ± 0.13 μmol/g tissue/hr
average daily food consumption / appetite versus control (in words) (C57BL/6J (ob/ob) mice; 26-week-old ob/ob mice, FIG. 11B): No significance
Ave. food consumption (C57BL/6J (ob/ob) mice; [5]): 5.03 ± 0.13 g/mouse/day
Blood glucose (C57BL/6J (ob/ob) mice; [5]): 6.0 ± 1.0 mM
Body weight gain (C57BL/6J (ob/ob) mice; [5]): 2.00 ± 0.24 g
Final body weight (C57BL/6J (ob/ob) mice; [5]): 56.70 ± 4.45 g
Triglyceride (C57BL/6J (ob/ob) mice; [5]): 0.54 ± 0.15 mM
Ave. food consumption (C57BL/6J (ob/ob) mice; [6]): 4.82 ± 0.22 g/mouse/day
Blood glucose (C57BL/6J (ob/ob) mice; [6]): 6.2 ± 0.8 mM
Body weight gain (C57BL/6J (ob/ob) mice; [6]): -0.32 ± 0.23 g
Final body weight (C57BL/6J (ob/ob) mice; [6]): 54.42 ± 4.66 g
Triglyceride (C57BL/6J (ob/ob) mice; [6]): 0.49 ± 0.10 mM
Initial body weight (C57BL/6J (ob/ob) mice; female ob/ob mice 26 weeks, Treatment (Day 0-18), i.p. 500 μg/kg daily): 54.74 ± 4.96 g
Initial body weight (C57BL/6J (ob/ob) mice; female ob/ob mice, Post-treatment (Day 20-38), saline): 54.70 ± 4.15 g
anti-obesity action on body weight gain (in words) (C57BL/6J (ob/ob) mice; obese mice, FIG. 11A, i.p. 500 μg/kg daily, 18 days): anti-obesity actions

9404 (LRIVQCRSVEGSCGF-NH2; disulfide 6-13; N-terminus assumed; SMILES CC[C@H](C)[C@H](NC(=O)[C@H](CCCNC(=N)N)NC(=O)[C@@H](N)CC(C)C)C(=O)N[C@H](C(=O)N[C@@H](CCC(N)=O)C(=O)N[C@H]1CSSC[C@@H](C(=O)NCC(=O)N[C@@H](Cc2ccccc2)C(N)=O)NC(=O)[C@H](CO)NC(=O)CNC(=O)[C@H](CCC(=O)O)NC(=O)[C@H](C(C)C)NC(=O)[C@H](CO)NC(=O)[C@H](CCCNC(=N)N)NC1=O)C(C)C; listed as Homo sapiens) [compound 9404]
Glycerol release ([1]; peptide concentration 0.1 μM): 1.75 ± 0.12 μmol/g tissue/hr
Glycerol release ([1]; peptide concentration 1.0 μM): 1.94 ± 0.12 μmol/g tissue/hr

9407 (LRIVQCKSVEGSCGF; disulfide 6-13; listed as Homo sapiens) [compound 9407]
Glycerol release ([1]; peptide concentration 0.1 μM): 1.83 ± 0.11 μmol/g tissue/hr
Glycerol release ([1]; peptide concentration 1.0 μM): 1.79 ± 0.07 μmol/g tissue/hr
activity according to the in vivo and in vitro assay results (in words) [2]: retains activity

9604 (YLRIVQCRSVEGSCGF; disulfide 7-14; listed as Homo sapiens) [compound 9604]
14C incorporation [3]: 28 ± 3 Av DPM/mg tissue/hour
Glycerol released (Porcine adipose Tissue): 1600 ± 20 nmol/mg tissue/hour
cumulative weight gain (in words) (C57BL/6J (ob/ob) mice; 16-week old ob/ob mice, chronic treatment, FIG. 12): exceptional efficacy

9605 (KLRIVQCRSVEGSCGF; disulfide 7-14; listed as Homo sapiens) [compound 9605]
14C incorporation [3]: 36 ± 2 Av DPM/mg tissue/hour
Glycerol released (Porcine adipose Tissue): 1350 ± 80 nmol/mg tissue/hour
Glycerol released [4]: 1100 ± 80 nmol/mg tissue/hour
